Results: ChEMBL document CHEMBL1129101 (Bioorg Med Chem Lett, 1996)

How the values were obtained:
Histamine H2 receptor = Histamine H2 receptor (Rattus norvegicus, UniProt P25102); assay: Antagonistic activity by inhibition histamine H2 receptor from rats.; format: functional; conditions: read-out: pA2 (converted)
[1] = biological target: T1, Cholecystokinin receptor type A (Mus musculus, UniProt O08786); assay: Inhibitory activity against Cholecystokinin type A receptor
T1 sequence (O08786 whole entry): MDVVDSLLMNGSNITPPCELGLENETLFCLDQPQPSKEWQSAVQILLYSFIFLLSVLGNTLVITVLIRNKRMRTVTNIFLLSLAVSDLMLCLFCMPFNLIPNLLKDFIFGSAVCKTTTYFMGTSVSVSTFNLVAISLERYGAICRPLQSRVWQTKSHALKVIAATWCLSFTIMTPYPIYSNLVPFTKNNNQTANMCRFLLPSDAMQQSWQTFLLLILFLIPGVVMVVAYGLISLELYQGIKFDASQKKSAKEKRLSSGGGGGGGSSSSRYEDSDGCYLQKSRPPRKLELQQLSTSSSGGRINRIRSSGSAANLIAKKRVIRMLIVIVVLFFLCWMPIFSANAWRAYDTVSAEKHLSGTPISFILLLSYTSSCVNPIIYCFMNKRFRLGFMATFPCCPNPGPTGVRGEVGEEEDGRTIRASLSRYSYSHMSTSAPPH

[2] = biological target: Cholecystokinin receptor (Mus musculus) (UniProt O08786+P56481); assay: Ratio of IC50(gastrin) to IC50(CCK-A); format: protein assay
[3] = biological target: T2, Gastrin/cholecystokinin type B receptor (Mus musculus, UniProt P56481); assay: Inhibitory activity against Cholecystokinin type B receptor
T2 sequence (P56481 whole entry): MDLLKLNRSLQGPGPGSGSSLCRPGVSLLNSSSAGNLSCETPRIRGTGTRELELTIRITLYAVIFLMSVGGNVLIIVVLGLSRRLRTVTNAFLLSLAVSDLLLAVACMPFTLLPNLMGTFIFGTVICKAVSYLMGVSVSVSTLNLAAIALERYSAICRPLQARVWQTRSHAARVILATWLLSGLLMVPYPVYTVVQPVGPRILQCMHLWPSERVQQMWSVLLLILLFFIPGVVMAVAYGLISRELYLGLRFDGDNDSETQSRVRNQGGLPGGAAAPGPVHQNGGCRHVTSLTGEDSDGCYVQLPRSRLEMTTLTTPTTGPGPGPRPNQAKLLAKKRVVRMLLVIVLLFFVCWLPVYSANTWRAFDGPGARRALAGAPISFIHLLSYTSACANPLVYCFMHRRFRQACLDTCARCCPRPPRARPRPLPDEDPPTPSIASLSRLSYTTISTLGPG

Chain of Histamine H2 receptor (P25102 whole entry): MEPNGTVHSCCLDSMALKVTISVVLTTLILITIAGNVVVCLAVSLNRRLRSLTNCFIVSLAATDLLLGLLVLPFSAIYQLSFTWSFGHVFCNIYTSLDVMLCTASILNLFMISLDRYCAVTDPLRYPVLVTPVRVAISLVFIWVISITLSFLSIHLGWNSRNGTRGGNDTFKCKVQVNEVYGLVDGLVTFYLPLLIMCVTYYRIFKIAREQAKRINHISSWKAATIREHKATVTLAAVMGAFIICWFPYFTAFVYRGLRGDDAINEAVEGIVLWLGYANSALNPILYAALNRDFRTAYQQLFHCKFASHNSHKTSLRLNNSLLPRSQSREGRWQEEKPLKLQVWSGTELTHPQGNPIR

## CC(C)(C)OC(=O)NCCCC(=O)NCCCOc1cccc(CN2CCCCC2)c1
Histamine H2 receptor
  Kb: 15.8 nM

## CN1C(=O)[C@H](NC(=O)Nc2cccc(CCOC(=O)NCCCC(=O)NCCCOc3cccc(CN4CCCCC4)c3)c2)N=C(c2ccccc2)c2ccccc21
Histamine H2 receptor
  Kb: 398 nM
[1]
  IC50: 5 µM
[2]
  Ratio: 217
[3]
  IC50: 180 nM

## CC(C)(C)OC(=O)NCCCC(=O)NCCSCc1csc(N=C(N)N)n1
Histamine H2 receptor
  Kb: 50.1 nM

## CN1C(=O)[C@H](NC(=O)Nc2cccc(COC(=O)NCCCN3CCN(C(=O)CNCCCOc4cccc(CN5CCCCC5)c4)CC3)c2)N=C(c2ccccc2)c2ccccc21
Histamine H2 receptor
  Kb: 316 nM
[1]
  IC50: 1.65 µM
[2]
  Ratio: 183
[3]
  IC50: 400 nM

## CN1C(=O)[C@H](NC(=O)Nc2cccc(COC(=O)NCCC(=O)NCCCOc3cccc(CN4CCCCC4)c3)c2)N=C(c2ccccc2)c2ccccc21
Histamine H2 receptor
  Kb: 316 nM
[1]
  IC50: 0.31 µM
[2]
  Ratio: 9
[3]
  IC50: 160 nM

## CN1C(=O)[C@H](NC(=O)Nc2cccc(COC(=O)NCCCC(=O)NCCCOc3cccc(CN4CCCCC4)c3)c2)N=C(c2ccccc2)c2ccccc21
Histamine H2 receptor
  Kb: 251 nM
[1]
  IC50: 3.6 µM
[2]
  Ratio: 138
[3]
  IC50: 64 nM

## CN1C(=O)[C@H](NC(=O)Nc2cccc(CCOC(=O)NCCC(=O)NCCCOc3cccc(CN4CCCCC4)c3)c2)N=C(c2ccccc2)c2ccccc21
Histamine H2 receptor
  Kb: 1260 nM
[1]
  IC50: 4.2 µM
[2]
  Ratio: 156
[3]
  IC50: 94 nM

## Cc1cccc(NC(=O)N[C@@H]2N=C(c3cccc(OC(=O)NCCCC(=O)NCCCOc4cccc(CN5CCCCC5)c4)c3)c3ccccc3N(C)C2=O)c1
Histamine H2 receptor
  Kb: 501 nM
[1]
  IC50: 3.8 µM
[2]
  Ratio: 17
[3]
  IC50: 460 nM

## CN1C(=O)[C@H](NC(=O)Nc2cccc(CCOC(=O)NCCCC(=O)NCCSCc3csc(N=C(N)N)n3)c2)N=C(c2ccccc2)c2ccccc21
Histamine H2 receptor
  Kb: 794 nM
[1]
  IC50: 1.3 µM
[2]
  Ratio: 35
[3]
  IC50: 300 nM

## CN1C(=O)[C@H](NC(=O)Nc2cccc(COC(=O)NCCN3CCN(C(=O)CNCCCOc4cccc(CN5CCCCC5)c4)CC3)c2)N=C(c2ccccc2)c2ccccc21
Histamine H2 receptor
  Kb: 631 nM
[1]
  IC50: 0.74 µM
[2]
  Ratio: 106
[3]
  IC50: 45 nM

## CN1C(=O)[C@H](NC(=O)Nc2cccc(COC(=O)NCC(=O)NCCCOc3cccc(CN4CCCCC4)c3)c2)N=C(c2ccccc2)c2ccccc21
Histamine H2 receptor
  Kb: 794 nM
[1]
  IC50: 6.1 µM
[2]
  Ratio: 555
[3]
  IC50: 200 nM

## CN1C(=O)[C@H](NC(=O)Nc2cccc(COC(=O)NCCNC(=O)CC(=O)NCCCOc3cccc(CN4CCCCC4)c3)c2)N=C(c2ccccc2)c2ccccc21
Histamine H2 receptor
  Kb: 158 nM
[1]
  IC50: 8.2 µM
[2]
  Ratio: 432
[3]
  IC50: 103 nM

## Cc1cccc(NC(=O)N[C@@H]2N=C(c3ccccc3)c3ccccc3N(CCOC(=O)NCCCC(=O)NCCCOc3cccc(CN4CCCCC4)c3)C2=O)c1
Histamine H2 receptor
  Kb: 1000 nM
[1]
  IC50: 4.6 µM
[2]
  Ratio: 34
[3]
  IC50: 4000 nM

## Cc1cccc(NC(=O)N[C@@H]2N=C(c3ccccc3)c3ccccc3N(CCOC(=O)NCCCC(=O)NCCSCc3csc(N=C(N)N)n3)C2=O)c1
Histamine H2 receptor
  Kb: 3160 nM
[1]
  IC50: 4.4 µM
[2]
  Ratio: 289
[3]
  IC50: 930 nM
